Measurements: PMC7076013 (Scientific Reports, 2020)

Experiments:
[1] = test system: SW620, human colon carcinoma; experiment: MTT cell viability, SW620; type: cell-based; details: 48 h
Method: (§1) Both melanoma and colon cancer are tumor types tightly connected with inflammation, while the expression of COX-2 in the selected cell lines was highly variable. Since a lot of discrepancies were found in the literature concerning the expression of this enzyme[5],[48]–[53], both COX-1 and COX-2 expression was analyzed by Western blot. […] The cells were treated with a wide range of doses of 4a–c, 5, and 6 for 48 h and cell viability was determined by MTT (3-(4,5-dimethylthiazol-2-yl)-2,5-diphenyltetrazolium bromide) and CV (crystal violet) assays. The obtained IC50 values were similar for both assays (Table 1).
(§2) Reagents were obtained from Sigma (St. Louis, MO) unless indicated otherwise. […]
(§3) S ystems, Minneapolis, MN USA). […] After being detached b y tr ypsinization, cells were seeded in defined number as follows: 2.5 × 10^3 cells/well in 96-well plates for viability assessment and 2 × 10^4 cells/well in 24-well plates for flow cytometry. […]
(§4) Before treatment, non- adherent cells were removed. Compounds 4a- c, 5 and 6 were dissolved in DMSO and stored at −20 °C for a m onth. Working solutions were freshl y prepared in 10% FCS-RPMI-1640. Controls were treated with culture medium containing the equivalent […]
(§5) 3.2. Cell viability tests.
(§6) The number of viable cel ls in culture was estimated by the MTT (3-(4,5- dimethylthiazol- 2-yl ) - 2,5- diphenyltetrazolium bromide) and CV (crystal violet) tests. Cells were incubated in the presence of compounds 4a- c, 5 and 6 for 48 h, then the viability was measured as described.4 […]
(§7) The results were ex pressed as a p er centage of a v alue obtained for the untr eated control cells that was arbitrarily set to be 100%. A non- linear regression analysis of obtained results was done b y using Gr aphPad Prism software to calculat e IC50 values. […]

[2] = test system: B16F10, mouse metastatic melanoma; experiment: MTT cell viability, B16F10; type: cell-based; details: 48 h
Method: as §1
as §3, with “Reagents were obtained from Sigma (St. Louis, MO) unless indicated otherwise. Annexin V - FITC (AnnV) was acquired from Biotium (Hayward, CA) and Apostat from R&D (R&D S ystems,” for “S ystems,”
as §4, with “Committee at IBISS (02- 09/1 6). Cells were counted and seeded in 96-well plates and incubat ed overnight. Before” for “Before”
as §5, §6, §7

A375, human melanoma = experiment: MTT cell viability, A375; type: cell-based; details: 48 h
Method: as §1
as §3, with “Reagents were obtained from Sigma (St. Louis, MO) unless indicated otherwise. Annexin V - FITC (AnnV) was acquired from Biotium (Hayward, CA) and Apostat from R&D (R&D S ystems,” for “S ystems,”
as §4, with “Committee at IBISS (02- 09/1 6). Cells were counted and seeded in 96-well plates and incubat ed overnight. Before” for “Before”
as §5, §6, §7

human recombinant COX-2 = biological target: T1, human recombinant COX-2 (Homo sapiens, UniProt P35354); experiment: COX Fluorescent Inhibitor Screening Assay, COX-2; type: biochemical; details: human recombinant COX-2, Cayman kit 700100
T1 construct: purchased Cayman Chemical Item No. 700100 (assay kit)
T1 sequence (P35354 18-604): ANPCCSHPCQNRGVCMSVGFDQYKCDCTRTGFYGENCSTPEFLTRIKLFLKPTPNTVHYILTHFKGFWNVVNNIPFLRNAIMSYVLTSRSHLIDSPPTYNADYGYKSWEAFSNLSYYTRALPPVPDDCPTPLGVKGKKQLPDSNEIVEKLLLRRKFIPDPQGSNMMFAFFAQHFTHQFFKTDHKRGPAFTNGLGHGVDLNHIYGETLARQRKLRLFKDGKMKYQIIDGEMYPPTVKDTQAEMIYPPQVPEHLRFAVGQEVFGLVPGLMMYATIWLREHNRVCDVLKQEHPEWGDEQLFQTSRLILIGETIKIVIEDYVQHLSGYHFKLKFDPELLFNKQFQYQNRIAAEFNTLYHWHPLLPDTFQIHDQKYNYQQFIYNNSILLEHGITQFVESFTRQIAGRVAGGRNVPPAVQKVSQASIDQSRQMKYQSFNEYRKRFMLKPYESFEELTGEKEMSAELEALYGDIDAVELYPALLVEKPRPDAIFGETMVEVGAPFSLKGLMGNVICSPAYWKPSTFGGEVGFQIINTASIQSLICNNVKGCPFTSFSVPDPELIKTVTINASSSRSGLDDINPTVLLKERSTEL
Method: The synthesized compounds were tested in vitro for their potential to inhibit ovine COX-1 and human recombinant COX-2.
*All compounds were measured with the Cytation 5 plate reader and the "COX Fluorescent Inhibitor […]
chemi cals, USA) " according to the manufacturer's
Error bars indicate standard error mean (SEM) obtained from two measurements at each concentration.
(1 picture or pasted object on this page, not shown here)

[3] = test system: peritoneal resident macrophages; experiment: CV cytotoxicity for isolated macrophages; type: cell-based, C57BL/6 mice; details: crystal violet (CV) test
Method: (§8) Reagents were obtained from Sigma (St. Louis, MO) unless indicated otherwise. Annexin V - FITC (AnnV) was acquired from Biotium (Hayward, CA) and Apostat from R&D (R&D S ystems, Minneapolis, MN USA). […] After being detached b y tr ypsinization, cells were seeded in defined number as follows: 2.5 × 10^3 cells/well in 96-well plates for viability assessment and 2 × 10^4 cells/well in 24-well plates for flow cytometry. Peritoneal resident […]
(§9) for Biolo gical Research “Siniša Stanković” b y peritoneal lav age with an ice- cold phosphate buffer solution (PBS). The handling of animals and protocol for obtaining cells is in agreement with the rules of the European Union and approved by the Institutional Animal Care and Use Committee at IBISS (02- 09/1 6). Cells were counted and seeded in 96-well plates and incubat ed overnight. Before treatment, non- adherent cells were removed. Compounds 4a- c, 5 and 6 were dissolved in DMSO and stored at −20 °C for a m onth. Working solutions were freshl y prepared in 10% FCS-RPMI-1640. Controls were treated with culture medium containing the equivalent […]
as §5, §6, §7
14 Ligand molecules and one […]
protocol published earlier.16
Cell line Selectivity index

[4] = test system: B16, mouse solid melanoma; experiment: MTT cell viability, B16; type: cell-based; details: 48 h
Method: as §1
as §8, with “cytometry.” for “cytometry. Peritoneal resident”
as §4, with “Committee at IBISS (02- 09/1 6). Cells were counted and seeded in 96-well plates and incubat ed overnight. Before” for “Before”
as §5, §6, §7

[5] = test system: SW620, human colon carcinoma; experiment: CV (crystal violet) cell viability, SW620; type: cell-based; details: for IC50: 48 h; for Selectivity index SW620: IC50 macrophages / IC50 cancer
Method: as §1, §2
S ystems, Minneapolis, MN USA). […] After being detached b y tr ypsinization, cells were seeded in defined number as follows: 2.5 × 10^3 cells/well in 96-well plates for viability assessment and 2 × 10^4 cells/well in 24-well plates for flow cytometry. Peritoneal resident […]
as §9, §5, §6, §7

[6] = test system: B16F10, mouse metastatic melanoma; experiment: CV (crystal violet) cell viability, B16F10; type: cell-based; details: for IC50: 48 h; for Selectivity index B16F10: IC50 macrophages / IC50 cancer
Method: as §1, §8, §9, §5, §6, §7

| Substance | IC50 [1] | IC50 [2] | IC50 (A375, human melanoma) | IC50 (human recombinant COX-2) | IC50 [3] | IC50 [4] | IC50 [5] | Selectivity index SW620 [5] | IC50 [6] | Selectivity index B16F10 [6] |
| --- | --- | --- | --- | --- | --- | --- | --- | --- | --- | --- |
| 4-[4-(hydroxymethyl)phenyl]-3-(1,2-dicarba-closo-dodecaboranyl)furan-2(5H)-one [Compound 4c] | 35.7 ± 0.85 µM | 28 ± 2.62 µM | 17.9 ± 1.26 µM | > 100 µM | 66.2 ± 1.91 µM | 26.1 ± 2.49 µM | 44.4 ± 1.77 µM | 1.5 | 26.5 ± 2.62 µM | 2.5 |
| 4-[4-(methylnitrooxy)phenyl]-3-(1,2-dicarba-closo-dodecaboranyl)furan-2(5 H)-one [Compound 5] | 10.5 ± 0.14 µM | 7.95 ± 3.06 µM | 4.25 ± 1.65 µM | > 100 µM | 37.1 ± 1.73 µM | 10.1 ± 0.4 µM | 10.8 ± 0.21 µM | 3.5 | 7.65 ± 0.26 µM | 4.8 |
| 4-[4-(methylsulfonyl)phenyl]-3-(1,2-dicarba-closo-dodecaboranyl)furan-2(5H)-one [Compound 4b] | 19.2 ± 0.78 µM | 27.3 ± 2.82 µM | 16.9 ± 1.35 µM | > 100 µM | 65.7 ± 5.75 µM | 18 ± 1.71 µM | 21.8 ± 0.64 µM | 3.0 | 26.6 ± 2.62 µM | 2.5 |
| 4-phenyl-3-(1,2-dicarba-closo-dodecaboranyl)furan-2(5 H)-one [Compound 4a] | 24.7 ± 0.42 µM | 24.3 ± 2.01 µM | 20.2 ± 1.26 µM | > 100 µM | 48.8 ± 1.2 µM | 30.8 ± 2.81 µM | 24.8 ± 0.35 µM | 2.0 | 25.4 ± 2.41 µM | 1.9 |
| R,S-7-(2-oxo-4-(4-sulfamoylphenyl)-2,5-dihydrofuran-3-yl)-7,8-dicarba-nido-dodeca-hydroundecaborate(–1) sodium [Compound 6] | > 50 µM | > 50 µM | > 50 µM | 69.6 µM |  | > 50 µM | > 50 µM |  | > 50 µM |  |
